Experiments:
HCC1954 cells = experiment: Breast cancer growth inhibitory activity (Cell-titer Glo, 72 h); type: cell-based; details: Homo sapiens, read-out: HCC1954 GI50
In short: (§1)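 Cells seeded at 2,500 (SK-Br3) or 1,000 (HCC1954) per well and grown 24 h before treatment. Viability read by Cell-titer Glo luminescence; IC50 from titration curve fitting.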

SK-Br3 cells = experiment: as above; type: cell-based; details: Homo sapiens, SK-BR-3; read-out: SK-Br3 GI50
In short: as §1

IRS1 and WNT1 = experiment: Western blot, CDK12 downstream gene expression; type: cell-based; details: SK-Br3 and HCC1954 cell lines, 40 and 200 nM, 24 hours
[1] = Liver microsomal metabolic stability; type: in vitro ADME
Description: (§2) 5 derivatives were evaluated for in vitro metabolic stability in liver microsomes from three different species (human, dog, mouse) and for inhibitory activity against 5 representative cytochrome P450 enzymes (CYPs)(Table 3). In terms of liver microsomal stability, the 2′-pyridyl group is more suitable than the α-methyl-4′-pyridyl group as the terminal aromatic group at position 6, and the aminopyrimidyl group is better than the aminopyridyl group as a substituent at position 2.

CYP1A2 = CYP1A2 (Homo sapiens (Human), UniProt P05177); experiment: in vitro; type: in vitro ADME
Description: as §2

CDK9/cyclin T1 = CDK9/cyclin T1 (Homo sapiens (Human), UniProt P50750); experiment: Kinome-wide profiling; type: biochemical; details: read-out: % Residual Activity (mean)
CDK9/cyclin T1, sequence (P50750 whole entry): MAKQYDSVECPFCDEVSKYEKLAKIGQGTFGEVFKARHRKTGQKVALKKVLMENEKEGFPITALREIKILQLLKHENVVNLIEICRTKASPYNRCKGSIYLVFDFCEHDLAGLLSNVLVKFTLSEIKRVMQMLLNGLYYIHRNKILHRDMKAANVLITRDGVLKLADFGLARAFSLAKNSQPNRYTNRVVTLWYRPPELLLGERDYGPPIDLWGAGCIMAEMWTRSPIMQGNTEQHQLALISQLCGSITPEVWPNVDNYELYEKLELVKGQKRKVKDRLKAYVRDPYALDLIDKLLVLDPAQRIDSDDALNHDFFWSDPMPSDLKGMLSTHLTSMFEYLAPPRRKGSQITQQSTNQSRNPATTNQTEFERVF
CDK9/cyclin T1, sequence (O60563 whole entry partner): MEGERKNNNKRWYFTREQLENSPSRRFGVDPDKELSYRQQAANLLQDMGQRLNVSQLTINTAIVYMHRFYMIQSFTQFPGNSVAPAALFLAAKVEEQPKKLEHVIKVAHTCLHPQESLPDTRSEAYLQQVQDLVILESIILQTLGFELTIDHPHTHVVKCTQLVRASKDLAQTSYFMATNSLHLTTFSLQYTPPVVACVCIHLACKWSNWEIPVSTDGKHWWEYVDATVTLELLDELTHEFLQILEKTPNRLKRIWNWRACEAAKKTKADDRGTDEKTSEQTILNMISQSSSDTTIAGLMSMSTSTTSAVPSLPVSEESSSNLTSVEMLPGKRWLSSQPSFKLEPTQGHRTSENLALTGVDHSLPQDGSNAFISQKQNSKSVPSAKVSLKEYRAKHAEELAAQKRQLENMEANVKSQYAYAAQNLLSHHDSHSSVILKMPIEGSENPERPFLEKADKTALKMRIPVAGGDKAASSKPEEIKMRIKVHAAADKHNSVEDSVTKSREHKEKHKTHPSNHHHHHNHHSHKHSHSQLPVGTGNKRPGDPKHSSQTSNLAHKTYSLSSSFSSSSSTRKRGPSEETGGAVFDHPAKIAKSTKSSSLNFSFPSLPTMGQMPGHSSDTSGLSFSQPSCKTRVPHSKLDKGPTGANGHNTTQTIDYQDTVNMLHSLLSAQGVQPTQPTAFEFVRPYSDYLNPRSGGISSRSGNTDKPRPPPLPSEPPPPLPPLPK

DYRK1B = DYRK1B (Homo sapiens (Human), UniProt Q9Y463); experiment: Kinome-wide profiling; type: biochemical; details: read-out: % Residual Activity (mean)
EPHA4 = EPHA4 (Homo sapiens (Human), UniProt P54764); experiment: Kinome-wide profiling; type: biochemical; details: read-out: % Residual Activity (mean)
TYRO3/SKY = TYRO3/SKY (Homo sapiens (Human), UniProt Q06418); experiment: Kinome-wide profiling; type: biochemical; details: read-out: % Residual Activity (mean)
CK1a1 = CK1a1 (Homo sapiens (Human), UniProt P48729); experiment: Kinome-wide profiling; type: biochemical; details: read-out: % Residual Activity (mean)
CK1epsilon = CK1epsilon (Homo sapiens (Human), UniProt P49674); experiment: Kinome-wide profiling; type: biochemical; details: read-out: % Residual Activity (mean)
FGFR3 = FGFR3 (Homo sapiens (Human), UniProt P22607); experiment: Kinome-wide profiling; type: biochemical; details: read-out: % Residual Activity (mean)
HCK = HCK (Homo sapiens (Human), UniProt P08631); experiment: Kinome-wide profiling; type: biochemical; details: read-out: % Residual Activity (mean)
BRK = BRK (Homo sapiens (Human), UniProt Q13882); experiment: Kinome-wide profiling; type: biochemical; details: read-out: % Residual Activity (mean)
JNK3 = JNK3 (Homo sapiens (Human), UniProt P53779); experiment: Kinome-wide profiling; type: biochemical; details: read-out: % Residual Activity (mean)
JNK3, sequence (P53779 whole entry): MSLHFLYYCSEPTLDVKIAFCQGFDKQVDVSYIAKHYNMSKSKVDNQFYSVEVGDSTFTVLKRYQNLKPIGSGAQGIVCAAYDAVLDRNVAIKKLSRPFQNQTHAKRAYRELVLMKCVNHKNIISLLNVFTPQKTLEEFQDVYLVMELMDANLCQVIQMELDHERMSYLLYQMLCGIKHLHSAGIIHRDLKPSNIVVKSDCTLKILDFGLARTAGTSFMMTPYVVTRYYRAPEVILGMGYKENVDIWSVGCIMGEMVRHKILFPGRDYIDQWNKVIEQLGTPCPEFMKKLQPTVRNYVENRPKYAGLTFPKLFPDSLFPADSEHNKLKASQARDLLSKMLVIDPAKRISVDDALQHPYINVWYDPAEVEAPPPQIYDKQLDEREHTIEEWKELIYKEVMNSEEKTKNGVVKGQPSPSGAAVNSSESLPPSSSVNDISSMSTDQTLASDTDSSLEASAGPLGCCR

DDR1 = DDR1 (Homo sapiens (Human), UniProt Q08345); experiment: Kinome-wide profiling; type: biochemical; details: read-out: % Residual Activity (mean)
DDR1, sequence (Q08345 19-913): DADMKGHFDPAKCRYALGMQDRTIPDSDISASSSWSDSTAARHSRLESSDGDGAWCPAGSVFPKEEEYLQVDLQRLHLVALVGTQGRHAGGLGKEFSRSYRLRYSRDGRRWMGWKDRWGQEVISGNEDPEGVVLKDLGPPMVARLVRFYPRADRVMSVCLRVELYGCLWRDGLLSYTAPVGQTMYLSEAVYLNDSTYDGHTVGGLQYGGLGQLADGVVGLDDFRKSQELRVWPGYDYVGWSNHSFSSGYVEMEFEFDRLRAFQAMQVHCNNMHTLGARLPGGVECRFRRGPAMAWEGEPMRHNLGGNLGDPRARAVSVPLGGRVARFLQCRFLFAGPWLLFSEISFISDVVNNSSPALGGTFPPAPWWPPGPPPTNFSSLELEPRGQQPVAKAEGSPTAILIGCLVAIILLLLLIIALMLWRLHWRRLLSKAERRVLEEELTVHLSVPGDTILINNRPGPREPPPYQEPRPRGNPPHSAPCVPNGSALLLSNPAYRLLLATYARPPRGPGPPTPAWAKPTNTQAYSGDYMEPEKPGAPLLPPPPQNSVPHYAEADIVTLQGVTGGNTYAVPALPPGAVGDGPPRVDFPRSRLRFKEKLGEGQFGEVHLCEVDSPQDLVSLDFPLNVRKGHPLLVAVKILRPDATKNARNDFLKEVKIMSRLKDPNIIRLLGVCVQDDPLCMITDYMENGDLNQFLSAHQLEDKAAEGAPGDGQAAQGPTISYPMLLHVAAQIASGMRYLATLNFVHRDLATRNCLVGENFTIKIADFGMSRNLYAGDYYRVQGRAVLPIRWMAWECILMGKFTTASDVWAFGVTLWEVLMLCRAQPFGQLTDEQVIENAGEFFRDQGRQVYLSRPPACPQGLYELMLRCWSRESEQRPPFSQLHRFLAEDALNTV

STK32B/YANK2 = STK32B/YANK2 (Homo sapiens (Human), UniProt Q9NY57); experiment: Kinome-wide profiling; type: biochemical; details: read-out: % Residual Activity (mean)
MLCK/MYLK = MLCK/MYLK (Homo sapiens (Human), UniProt Q15746); experiment: Kinome-wide profiling; type: biochemical; details: read-out: % Residual Activity (mean)
LYN = LYN (Homo sapiens (Human), UniProt P07948); experiment: Kinome-wide profiling; type: biochemical; details: read-out: % Residual Activity (mean)
RIPK2 = RIPK2 (Homo sapiens (Human), UniProt O43353); experiment: Kinome-wide profiling; type: biochemical; details: read-out: % Residual Activity (mean)
MYO3b = MYO3b (Homo sapiens (Human), UniProt Q8WXR4); experiment: Kinome-wide profiling; type: biochemical; details: read-out: % Residual Activity (mean)
DCAMKL1 = DCAMKL1 (Homo sapiens (Human), UniProt O15075); experiment: Kinome-wide profiling; type: biochemical; details: read-out: % Residual Activity (mean)
ZIPK/DAPK3 = ZIPK/DAPK3 (Homo sapiens (Human), UniProt O43293); experiment: Kinome-wide profiling; type: biochemical; details: read-out: % Residual Activity (mean)
ZIPK/DAPK3, sequence (O43293 whole entry): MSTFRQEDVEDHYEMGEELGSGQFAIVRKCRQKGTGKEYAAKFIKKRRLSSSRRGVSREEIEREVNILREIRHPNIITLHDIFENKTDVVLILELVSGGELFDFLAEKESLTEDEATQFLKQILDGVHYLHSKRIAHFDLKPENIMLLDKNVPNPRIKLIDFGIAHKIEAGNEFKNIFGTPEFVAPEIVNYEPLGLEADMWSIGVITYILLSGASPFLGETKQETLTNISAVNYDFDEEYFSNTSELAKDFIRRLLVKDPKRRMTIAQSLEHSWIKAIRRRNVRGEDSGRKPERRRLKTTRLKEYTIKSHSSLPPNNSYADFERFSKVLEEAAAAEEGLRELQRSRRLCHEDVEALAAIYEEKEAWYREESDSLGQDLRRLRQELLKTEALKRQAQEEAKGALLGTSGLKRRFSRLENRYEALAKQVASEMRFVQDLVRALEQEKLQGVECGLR

RON/MST1R = RON/MST1R (Homo sapiens (Human), UniProt Q04912); experiment: Kinome-wide profiling; type: biochemical; details: read-out: % Residual Activity (mean)
SSTK/TSSK6 = SSTK/TSSK6 (Homo sapiens (Human), UniProt Q9BXA6); experiment: Kinome-wide profiling; type: biochemical; details: read-out: % Residual Activity (mean)
PKCb1 = PKCb1 (Homo sapiens (Human), UniProt P05771); experiment: Kinome-wide profiling; type: biochemical; details: read-out: % Residual Activity (mean)
DMPK2 = DMPK2 (Homo sapiens (Human), UniProt Q6DT37); experiment: Kinome-wide profiling; type: biochemical; details: read-out: % Residual Activity (mean)
DMPK2, sequence (Q6DT37 whole entry): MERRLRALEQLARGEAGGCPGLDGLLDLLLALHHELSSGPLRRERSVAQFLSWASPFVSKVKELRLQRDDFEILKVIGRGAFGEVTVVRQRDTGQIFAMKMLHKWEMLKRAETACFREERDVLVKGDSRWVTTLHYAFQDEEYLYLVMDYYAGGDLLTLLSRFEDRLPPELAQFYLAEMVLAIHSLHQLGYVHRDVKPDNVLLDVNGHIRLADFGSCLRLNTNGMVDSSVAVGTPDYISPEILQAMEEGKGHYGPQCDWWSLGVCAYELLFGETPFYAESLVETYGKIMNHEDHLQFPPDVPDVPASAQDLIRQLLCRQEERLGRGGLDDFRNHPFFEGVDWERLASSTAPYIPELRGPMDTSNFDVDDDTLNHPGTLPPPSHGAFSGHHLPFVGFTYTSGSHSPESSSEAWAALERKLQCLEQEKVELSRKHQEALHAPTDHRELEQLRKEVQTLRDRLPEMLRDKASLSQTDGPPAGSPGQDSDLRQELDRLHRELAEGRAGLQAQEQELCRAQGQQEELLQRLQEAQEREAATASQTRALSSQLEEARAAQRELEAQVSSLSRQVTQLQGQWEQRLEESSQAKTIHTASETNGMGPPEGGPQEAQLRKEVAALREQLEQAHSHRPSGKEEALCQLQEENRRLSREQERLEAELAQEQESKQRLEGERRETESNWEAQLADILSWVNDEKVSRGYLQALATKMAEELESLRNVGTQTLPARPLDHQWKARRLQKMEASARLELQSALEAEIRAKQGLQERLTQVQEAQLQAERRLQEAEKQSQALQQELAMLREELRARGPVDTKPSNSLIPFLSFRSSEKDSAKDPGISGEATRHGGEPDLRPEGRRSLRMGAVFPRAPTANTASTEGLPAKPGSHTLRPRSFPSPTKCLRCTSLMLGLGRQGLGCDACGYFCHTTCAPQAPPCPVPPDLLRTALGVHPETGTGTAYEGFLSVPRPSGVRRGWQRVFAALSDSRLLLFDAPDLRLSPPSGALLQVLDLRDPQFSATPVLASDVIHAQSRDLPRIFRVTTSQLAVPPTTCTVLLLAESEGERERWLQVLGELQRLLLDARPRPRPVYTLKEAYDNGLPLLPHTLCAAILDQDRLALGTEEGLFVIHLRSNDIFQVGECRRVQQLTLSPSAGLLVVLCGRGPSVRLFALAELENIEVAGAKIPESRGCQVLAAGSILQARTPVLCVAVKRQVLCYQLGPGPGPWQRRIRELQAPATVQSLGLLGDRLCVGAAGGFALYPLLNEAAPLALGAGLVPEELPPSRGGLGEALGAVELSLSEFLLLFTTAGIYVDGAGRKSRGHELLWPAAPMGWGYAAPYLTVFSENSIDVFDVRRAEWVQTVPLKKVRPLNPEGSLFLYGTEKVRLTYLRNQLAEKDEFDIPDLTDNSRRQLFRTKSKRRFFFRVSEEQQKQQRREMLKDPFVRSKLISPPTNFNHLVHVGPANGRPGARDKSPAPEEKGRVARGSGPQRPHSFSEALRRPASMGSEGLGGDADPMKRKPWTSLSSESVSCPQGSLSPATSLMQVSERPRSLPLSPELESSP

PBK/TOPK = PBK/TOPK (Homo sapiens (Human), UniProt Q96KB5); experiment: Kinome-wide profiling; type: biochemical; details: read-out: % Residual Activity (mean)
PBK/TOPK, sequence (Q96KB5 whole entry): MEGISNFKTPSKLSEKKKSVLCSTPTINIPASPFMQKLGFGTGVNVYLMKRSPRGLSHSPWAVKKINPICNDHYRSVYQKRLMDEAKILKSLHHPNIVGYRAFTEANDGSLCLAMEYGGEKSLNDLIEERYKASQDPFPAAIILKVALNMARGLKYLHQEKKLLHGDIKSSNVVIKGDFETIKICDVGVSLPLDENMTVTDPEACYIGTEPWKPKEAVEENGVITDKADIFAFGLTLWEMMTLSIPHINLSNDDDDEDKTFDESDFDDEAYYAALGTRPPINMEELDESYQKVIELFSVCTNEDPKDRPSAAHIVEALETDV

MKK4 = MKK4 (Homo sapiens (Human), UniProt P45985); experiment: Kinome-wide profiling; type: biochemical; details: read-out: % Residual Activity (mean)
MRCKa/CDC42BPA = MRCKa/CDC42BPA (Homo sapiens (Human), UniProt Q5VT25); experiment: Kinome-wide profiling; type: biochemical; details: read-out: % Residual Activity (mean)
MRCKb/CDC42BPB = MRCKb/CDC42BPB (Homo sapiens (Human), UniProt Q9Y5S2); experiment: Kinome-wide profiling; type: biochemical; details: read-out: % Residual Activity (mean)
PKG2/PRKG2 = PKG2/PRKG2 (Homo sapiens (Human), UniProt Q13237); experiment: Kinome-wide profiling; type: biochemical; details: read-out: % Residual Activity (mean)
JAK3 = JAK3 (Homo sapiens (Human), UniProt P52333); experiment: Kinome-wide profiling; type: biochemical; details: read-out: % Residual Activity (mean)

## CCn1cnc2c(NCc3ccc(-c4ccccn4)nc3)nc(-c3ccc(N)nc3)nc21 [Example 53, N-([2,2′-bipyridin]-5-ylmethyl)-2-(6-aminopyridin-3-yl)-9-ethyl-9H-purin-6-amine]
HCC1954 cells
  GI50: 36 nM
SK-Br3 cells
  GI50: 38 nM
IRS1 and WNT1
  expression of IRS1 and WNT1: inhibited the expression of IRS1 and WNT1
IRS1 and WNT1; listed as Compound 53
  expression of IRS1 and WNT1: strongly suppressed
[1]; dog liver microsomes
  Liver microsomal metabolic stability (% remaining amount) Dog: 46.2%
[1]; human liver microsomes
  Liver microsomal metabolic stability (% remaining amount) Human: 64.8%
[1]; mouse liver microsomes
  Liver microsomal metabolic stability (% remaining amount) Mouse: 49.9%
CYP1A2
  activity at 10 µM: 74.7%
CDK9/cyclin T1
  remaining activity at 10 µM: 0.78%
DYRK1B
  remaining activity at 10 µM: 3.19%
EPHA4
  remaining activity at 10 µM: 3.61%
TYRO3/SKY
  remaining activity at 10 µM: 22.4%
CK1a1
  remaining activity at 10 µM: 26.5%
CK1epsilon
  remaining activity at 10 µM: 29.8%
FGFR3
  remaining activity at 10 µM: 30.6%
HCK
  remaining activity at 10 µM: 46.5%
BRK
  remaining activity at 10 µM: 46.6%
JNK3
  remaining activity at 10 µM: 48.7%
DDR1
  remaining activity at 10 µM: 50.2%
STK32B/YANK2
  remaining activity at 10 µM: 57.6%
MLCK/MYLK
  remaining activity at 10 µM: 63.4%
LYN
  remaining activity at 10 µM: 65.7%
RIPK2
  remaining activity at 10 µM: 66.1%
MYO3b
  remaining activity at 10 µM: 68.1%
DCAMKL1
  remaining activity at 10 µM: 72.6%
ZIPK/DAPK3
  remaining activity at 10 µM: 80.8%
RON/MST1R
  remaining activity at 10 µM: 86.8%
SSTK/TSSK6
  remaining activity at 10 µM: 86.9%
PKCb1
  remaining activity at 10 µM: 89.9%
DMPK2
  remaining activity at 10 µM: 92.4%
PBK/TOPK
  remaining activity at 10 µM: 93.5%
MKK4
  remaining activity at 10 µM: 96.4%
MRCKa/CDC42BPA
  remaining activity at 10 µM: 96.6%
MRCKb/CDC42BPB
  remaining activity at 10 µM: 99.3%
PKG2/PRKG2
  remaining activity at 10 µM: 99.5%
JAK3
  remaining activity at 10 µM: 99.7%
